# Reference: the Kinase Knowledgebase extract (Sharma et al. 2016)
# Target: EGFR (UniProt P00533)
# Sequence (P00533 whole entry, looked up): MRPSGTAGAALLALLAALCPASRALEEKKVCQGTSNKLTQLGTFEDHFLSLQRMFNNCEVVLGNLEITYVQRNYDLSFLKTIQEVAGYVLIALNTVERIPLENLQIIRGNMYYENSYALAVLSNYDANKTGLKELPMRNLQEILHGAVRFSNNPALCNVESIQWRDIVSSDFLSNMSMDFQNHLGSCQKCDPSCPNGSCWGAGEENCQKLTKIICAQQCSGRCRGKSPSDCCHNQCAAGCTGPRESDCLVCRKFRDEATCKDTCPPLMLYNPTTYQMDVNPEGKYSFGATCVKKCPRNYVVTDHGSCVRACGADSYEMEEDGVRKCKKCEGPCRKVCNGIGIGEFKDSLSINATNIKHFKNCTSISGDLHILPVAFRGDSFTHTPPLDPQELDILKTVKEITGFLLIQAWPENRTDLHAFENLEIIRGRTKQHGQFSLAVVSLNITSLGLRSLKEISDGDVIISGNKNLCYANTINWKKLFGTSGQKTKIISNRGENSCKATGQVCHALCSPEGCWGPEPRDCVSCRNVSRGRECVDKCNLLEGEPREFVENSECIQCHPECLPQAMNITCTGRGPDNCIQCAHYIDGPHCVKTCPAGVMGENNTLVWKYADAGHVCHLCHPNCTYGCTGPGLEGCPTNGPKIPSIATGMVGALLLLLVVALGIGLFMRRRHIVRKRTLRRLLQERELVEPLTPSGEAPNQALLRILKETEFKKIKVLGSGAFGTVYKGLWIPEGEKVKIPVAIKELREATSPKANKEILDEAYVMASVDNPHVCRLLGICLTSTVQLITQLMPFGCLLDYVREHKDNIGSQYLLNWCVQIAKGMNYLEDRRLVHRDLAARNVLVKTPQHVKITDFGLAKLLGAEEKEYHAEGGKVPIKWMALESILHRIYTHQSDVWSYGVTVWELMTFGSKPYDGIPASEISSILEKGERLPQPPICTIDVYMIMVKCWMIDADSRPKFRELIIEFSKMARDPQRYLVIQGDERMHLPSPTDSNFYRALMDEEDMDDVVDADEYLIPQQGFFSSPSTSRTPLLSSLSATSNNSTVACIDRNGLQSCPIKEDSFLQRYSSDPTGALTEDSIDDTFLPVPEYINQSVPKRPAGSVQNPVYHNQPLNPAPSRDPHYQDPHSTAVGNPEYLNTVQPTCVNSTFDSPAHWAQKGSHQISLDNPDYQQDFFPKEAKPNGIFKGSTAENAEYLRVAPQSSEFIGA
row,SMILES,IC50 [nM]
1,COc1cc2c(Nc3ccc(Cl)c(Cl)c3)ncnc2cc1OCc1noc(OCc2ccccc2)n1,< 50
2,COc1cc2c(Nc3ccc(Cl)c(Cl)c3)ncnc2cc1OCc1nc([C@@H]2CCCN2)no1,< 50
3,COc1cc2c(Nc3cc(Cl)c(Cl)cc3F)ncnc2cc1OCC1CN(C)C(C)(C)CO1 (stereo not given),< 50
4,COc1cc2c(Nc3ccccc3Cl)ncnc2cc1O[C@@H]1CO[C@@H]2[C@H]1OC[C@H]2F,< 50
5,COc1cc2c(Nc3ccc(Cl)c(C(F)(F)F)c3)ncnc2cc1O[C@@H]1CO[C@@H]2[C@H]1OC[C@H]2F,< 50
6,COc1cc2c(Nc3ccc(Br)c(C)c3)ncnc2cc1OCC1CN(C)CCO1 (stereo not given),< 50
7,COc1cc2c(Nc3cc(F)c(Br)c(F)c3)ncnc2cc1OCC1CN(C)CCO1 (stereo not given),< 50
8,COc1cc2c(Nc3ccc(F)cc3)ncnc2cc1O[C@@H]1CO[C@@H]2[C@H]1OC[C@H]2F,< 50
9,COc1cc2c(Nc3cc(Br)cc(C(F)(F)F)c3)ncnc2cc1O[C@@H]1CO[C@@H]2[C@H]1OC[C@H]2F,< 50
10,COc1cc2c(Nc3cc(Cl)c(Br)cc3F)ncnc2cc1OCC1CN(C)CCO1 (stereo not given),< 50
11,COc1cc2c(Nc3ccc(Br)c(F)c3F)ncnc2cc1OCC1CN(C)CCO1 (stereo not given),< 50
12,COc1cc2c(Nc3ccc(F)c(Cl)c3F)ncnc2cc1OC[C@H]1CN2CCOC[C@H]2CO1,< 50
13,COc1cc2c(Nc3ccc(F)cc3Br)ncnc2cc1O[C@@H]1CO[C@@H]2[C@H]1OC[C@H]2F,< 50
14,COc1cc2c(Nc3ccc(Cl)c(Cl)c3)ncnc2cc1OCc1nc(CN2CCCN(C)CC2)cs1,< 50
15,COc1cc2c(Nc3ccc(Cl)c(Cl)c3F)ncnc2cc1OC[C@@H]1CN2CCOC[C@H]2CO1,< 50
16,COc1cc2c(Nc3cc(Cl)c(Br)cc3F)ncnc2cc1O[C@@H]1CO[C@@H]2[C@H]1OC[C@H]2F,< 50
17,COc1cc2c(Nc3ccc(Cl)c(Cl)c3)ncnc2cc1OCC1CN(C(=NC#N)N2CCCC2)CCO1 (stereo not given),< 50
18,COc1cc2c(Nc3ccc(F)c(Cl)c3F)ncnc2cc1OCC1CO[C@@H]2[C@@H](OC)CO[C@H]12 (stereo not given in full),< 50
19,COc1cc2c(Nc3ccc(Br)c(Cl)c3)ncnc2cc1O[C@H]1CO[C@@H]2[C@H]1OC[C@@H]2NS(C)(=O)=O,< 50
20,CC(C)Oc1cc2c(Nc3ccc(Cl)c(Cl)c3)ncnc2cc1OCC1CNCCO1 (stereo not given),< 50
21,COc1cc2c(Nc3ccc(Cl)c(Cl)c3)ncnc2cc1OCc1nc(N2CCN(C(=O)OC(C)(C)C)CC2)no1,< 50
22,COc1cc2c(Nc3ccc(Cl)c(Cl)c3)ncnc2cc1OCCNC1CC2CCC(C1)N2C (stereo not given),< 50
23,COc1cc2c(Nc3ccc(Br)c(Cl)c3)ncnc2cc1O[C@H]1CO[C@@H]2[C@H]1OC[C@@H]2N1CCCC1,< 50
24,COc1cc2c(Nc3ccc(Cl)c(Cl)c3)ncnc2cc1OCc1ccc2nc(C(F)(F)F)cc(Cl)c2c1,50 to 1000
25,COc1cc2c(Nc3ccc(Br)c(Cl)c3F)ncnc2cc1OC[C@@H]1CN(C)CC(=O)N1,< 50
26,COCCNC(=NC#N)N1CCOC(COc2cc3ncnc(Nc4ccc(Cl)c(Cl)c4)c3cc2OC)C1 (stereo not given),< 50
27,COCCN1CCCOC(COc2cc3ncnc(Nc4ccc(Cl)c(Cl)c4)c3cc2OC)C1 (stereo not given),< 50
28,CNC(=NC#N)N1CCOC(COc2cc3ncnc(Nc4ccc(Cl)c(Cl)c4)c3cc2OC)C1 (stereo not given),< 50
29,COc1cc2c(Nc3ccc(Cl)c(Cl)c3)ncnc2cc1OCC1CN(C(C)C)CCO1 (stereo not given),< 50
30,COc1cc2c(Nc3ccc(Cl)c(Cl)c3N3CCN(C)CC3)ncnc2cc1O[C@H]1CO[C@@H]2[C@H]1OC[C@@H]2F,< 50

# The next lines start with the values.
row,IC50 [nM],SMILES
1,< 50,CCN1CCN(C)CC1COc1cc2ncnc(Nc3ccc(Cl)c(Cl)c3)c2cc1OC (stereo not given)
2,< 50,COc1cc2c(Nc3ccc(Cl)c(Cl)c3)ncnc2cc1OCc1csc(CO)n1
3,< 50,COc1cc2c(Nc3ccc(Cl)c(Cl)c3)ncnc2cc1OCC1CN(S(=O)(=O)CCCCl)CCO1 (stereo not given)
4,< 50,COc1cc2c(Nc3ccc(Br)cc3F)ncnc2cc1OCC1CCN(C(N)=NC#N)CC1
5,< 50,COc1cc2c(Nc3ccc(Br)c(Cl)c3)ncnc2cc1O[C@H]1CO[C@@H]2[C@H]1OC[C@@H]2O
6,< 50,COc1cc2c(Nc3cccc(Cl)c3F)ncnc2cc1O[C@@H]1CO[C@@H]2[C@H]1OC[C@H]2F
7,< 50,COc1cc2c(Nc3ccc(Cl)c(Cl)c3)ncnc2cc1OCc1csc(N(C)C)n1
8,< 50,COc1cc2c(Nc3cc(Cl)c(Cl)cc3F)ncnc2cc1OCC1CN(C)CCO1 (stereo not given)
9,< 50,COc1cc2c(Nc3cccc(F)c3F)ncnc2cc1O[C@@H]1CO[C@@H]2[C@H]1OC[C@H]2F
10,< 50,COc1cc2c(Nc3ccc(Cl)c(Cl)c3)ncnc2cc1OCC1CN(C)C(C)(C)CO1 (stereo not given)
11,< 50,COc1cc2c(Nc3ccc(Cl)c(Cl)c3)ncnc2cc1OCc1nc(CS(=O)(=O)c2ccccn2)no1
12,< 50,COC(=O)CCN1CCOC(COc2cc3ncnc(Nc4ccc(Cl)c(Cl)c4)c3cc2OC)C1 (stereo not given)
13,< 50,COc1cc2c(Nc3ccc(Br)c(Cl)c3)ncnc2cc1O[C@@H]1CO[C@@H]2[C@H]1OC[C@@H]2O
14,< 50,COc1cc2c(Nc3ccc(Cl)c(Cl)c3)ncnc2cc1OCC1CN(S(=O)(=O)c2ccc(C)cc2)CCO1 (stereo not given)
15,< 50,COc1cc2c(Nc3ccc(Cl)c(Cl)c3)ncnc2cc1OCC1CN(C(=O)c2ccc(Cl)nc2)CCO1 (stereo not given)
